Data reported in PubChem BioAssay (NCI).
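Interpolation was linear, between the two tested concentrations surrounding the appropriate level; five concentrations were tested over 48 hours in 96-well plates. TGI is the concentration that stops growth completely.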

Experiments:
Assay in all cases: inhibition of tumour cell growth, NCI panel, 48 h
UACC-62 melanoma = test system: UACC-62 melanoma
OVCAR-8 ovarian = test system: OVCAR-8 ovarian
OVCAR-3 ovarian = test system: OVCAR-3 ovarian
K-562 leukemia = test system: K-562 leukemia
EKVX NSCLC = test system: EKVX NSCLC
SF-295 CNS = test system: SF-295 CNS
COLO 205 colon = test system: COLO 205 colon
BT-549 breast = test system: BT-549 breast
SR leukemia = test system: SR leukemia
NCI/ADR-RES ovarian = test system: NCI/ADR-RES ovarian
PC-3 prostate = test system: PC-3 prostate
MOLT-4 leukemia = test system: MOLT-4 leukemia
SK-MEL-5 melanoma = test system: SK-MEL-5 melanoma

Row | SMILES | TGI (UACC-62 melanoma) [µM] | TGI (OVCAR-8 ovarian) [µM] | TGI (OVCAR-3 ovarian) [µM] | TGI (K-562 leukemia) [µM] | TGI (EKVX NSCLC) [µM] | TGI (SF-295 CNS) [µM] | TGI (COLO 205 colon) [µM] | TGI (BT-549 breast) [µM] | TGI (SR leukemia) [µM] | TGI (NCI/ADR-RES ovarian) [µM] | TGI (PC-3 prostate) [µM] | TGI (MOLT-4 leukemia) [µM] | TGI (SK-MEL-5 melanoma) [µM]
1 | C/C=C/C(O)P1(=O)N(Cc2ccccc2)[C@@H]2CCCC[C@H]2N1Cc1ccccc1 (stereo partly specified) | > 25 | > 25 | > 25 | > 25 | > 25 | > 25 | > 25 | > 25 | > 25 | > 25 | > 25 | > 25 | > 25
2 | CNC(=O)Oc1ccc(-c2cn3cc(OC(=O)NC)ccc3n2)cc1 | > 100 | > 100 | > 100 | > 100 | > 100 | > 100 | > 100 | > 100 | > 100 | > 100 | > 100 | > 100 | > 100
3 | CC(=O)c1ccc2c3c1[C@@H]1O[C@@H]1c1cccc(c1-3)[C@@H]1O[C@H]21 | 31.1 | 18.1 | 30.4 | > 100 | 39.5 | 38.3 | 28.2 | 35.1 | > 100 | > 74.6 | > 52.3 | > 100 | 26
4 | C[C@H](N)C(=O)Nc1ccc(-c2nc3ccccc3s2)cc1 | 35.4 | 66.8 | 36.9 | 37.6 | 26.8 | 33.9 | 33.1 | > 100 | 31.2 | > 100 | 63.7 | 31.4 | 43
5 | CC(=O)O[C@H]1CC[C@@]2(C)C(=CC[C@H]3[C@@H]4C[C@H](N5CCCC5)[C@H](OC(C)=O)[C@@]4(C)CC[C@@H]32)C1 | > 100 | > 100 | > 100 | > 67.4 | > 100 | > 100 | > 100 | > 100 | > 100 | > 100 | > 100 | > 100 | 54.8
6 | Cc1ccn2c(=O)cc(-c3ccccc3)nc2c1 | > 100 | > 100 | > 100 | > 100 | > 100 | > 100 | > 100 | > 100 | > 100 | > 100 | > 100 | > 100 | > 100
7 | O=c1c2ncn(COCCCl)c2n(-c2ccccc2)c(=S)n1-c1ccccc1 | > 100 | > 100 | > 100 | > 100 | > 100 | > 100 | > 100 | > 100 | > 100 | > 100 | > 100 | > 100 | > 100
8 | Nc1cccc(Nc2nc3ccccc3nc2NS(=O)(=O)c2ccccc2)c1 | 46.1 | > 100 | 47.3 | 76.3 | > 100 | > 100 | 29.7 | 44.9 | 57.8 | > 100 | 49.7 | 48.9 | 29.8
9 | Cc1cn(C(Cc2ccccc2)OCCO)c(=O)[nH]c1=O (stereo unspecified) | > 100 | > 100 | > 100 | > 100 | > 100 | > 100 | > 100 | > 100 | > 100 | > 100 | > 100 | > 100 | > 100
10 | Cc1ccc([C@H]2CC(=O)C[C@H](c3ccc(C)cc3)C23C(=O)c2ccccc2C3=O)cc1 | > 100 | > 100 | > 100 | > 100 | > 100 | 51.9 | > 100 | > 100 | 34.3 | 30.2 | 84.5 | > 100 | > 100
11 | CC1=NN2C(=N)/C(=C/c3ccco3)C(=O)N=C2S1 | > 100 | > 100 | > 100 | > 100 | > 100 | > 100 | > 100 | > 100 | > 100 | > 100 | > 100 | > 100 | > 100
12 | C=CCCC(=O)CC(O)(C(F)(F)F)C(F)(F)F | > 100 | > 100 | > 100 | > 100 | > 100 | > 100 | > 100 | > 100 | > 100 | > 100 | > 100 | > 100 | > 100
